Paper PMC9402538, “Rational design of a sensitivity-enhanced tracer for discovering efficient APC–Asef inhibitors” (Nature Communications, 2022)
Like-named read-outs stand apart in the source and are kept apart here. Where a SMILES comes first, the peptide text is derived from it. [ ]: non-standard residue; d: D form. The star is where a group is joined. Phe(4-tBu) = CC(C)(C)c1ccc(C[C@H](N)C(=O)O)cc1; Cyclohexanecarbonyl = O=C(C1CCCCC1)*; Benzoyl(4-OMe) = COc1ccc(C(=O)*)cc1; Benzoyl(4-Me) = Cc1ccc(C(=O)*)cc1; Ala(cPr) = N[C@@H](CC1CC1)C(=O)O; Oxazole2carbonyl = O=C(c1ncco1)*; Cha = N[C@@H](CC1CCCCC1)C(=O)O; Isonicotinoyl = O=C(c1ccncc1)*; hLeu = CC(C)CC[C@H](N)C(=O)O; Nicotinoyl = O=C(c1cccnc1)*; 2Furoyl = O=C(c1ccco1)*; Acryloyl = C=CC(=O)*; X3 = O=C(c1ccncn1)*; Mpa = O=C(O)CCS

Target: T1, APC (303–739) (Homo sapiens, UniProt P25054)
T1 sequence (P25054 303-739): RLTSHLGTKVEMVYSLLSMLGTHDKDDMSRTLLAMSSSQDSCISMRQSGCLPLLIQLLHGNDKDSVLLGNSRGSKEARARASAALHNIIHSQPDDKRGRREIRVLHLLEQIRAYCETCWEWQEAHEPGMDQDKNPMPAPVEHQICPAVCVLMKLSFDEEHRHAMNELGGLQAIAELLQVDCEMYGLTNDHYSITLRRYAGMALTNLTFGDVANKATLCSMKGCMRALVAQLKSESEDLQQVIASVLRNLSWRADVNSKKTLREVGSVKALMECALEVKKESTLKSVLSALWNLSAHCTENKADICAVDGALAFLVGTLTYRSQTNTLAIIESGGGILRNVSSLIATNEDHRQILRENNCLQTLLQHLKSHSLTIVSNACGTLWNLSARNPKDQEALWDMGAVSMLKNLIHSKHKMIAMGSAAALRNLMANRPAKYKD
Test: FP competitive assay using tracer 7
Format: binding
Description: FITC-labeled tracer peptides were obtained from Changzhou Kanglong Biotech Ltd. (Changzhou, Jiangsu, China). […]. The FP signal changes upon tracer binding were measured after 1.5 h of incubation using a Synergy neo microplate reader (BioTek Instruments, Inc.) and plotted against the protein concentration. The corresponding EC50 values were generated by fitting the curves with a nonlinear regression model. […]. To make a working solution, APC (303–739) was diluted in FP buffer (50 mM HEPES, pH 7.5, 300 mM NaCl, 1 mM EDTA, 1 mM DTT). The diluted APC protein (91 μL) was combined with a serial dilution of peptides (4 μL) and incubated at room temperature for 1 h, followed by the addition of 5 μL of 400 nM tracer 7. The FP signals were measured after 1.5 h of incubation at room temperature using a Synergy neo microplate reader. Three controls were included on each plate, i.e., blank (without protein and tracer), 100% inhibition (free tracer only), and 0% inhibition (protein/tracer complex only) controls. All experiments were performed in triplicate. The IC50 values of peptides were calculated by nonlinear regression analysis using GraphPad Prism 7.0 software.

[1] = Repeat 1, Table 3 source data, read-out: IC50(μM) Repeat 1
[2] = Repeat 2, Table 3 source data, read-out: IC50(μM) Repeat 2
[3] = Repeat 3, Table 3 source data, read-out: IC50(μM) Repeat 3
[4] = mean of 3 repeats, Table 3 source data, read-out: IC50(μM) mean
[5] = tracer 7, mean of three repeats, read-out: IC50 mean
[6] = tracer 7, read-out: IC50 Repeat 1
[7] = tracer 7, read-out: IC50 Repeat 2
[8] = tracer 7, read-out: IC50 Repeat 3
[9] = Supplementary Table 4, read-out: IC50, Tracer 7

IC50 [1] [µM] | IC50 [2] [µM] | IC50 [3] [µM] | IC50 [4] [µM] | IC50 [5] [µM] | IC50 [6] [µM] | IC50 [7] [µM] | IC50 [8] [µM] | IC50 [9] [µM] | Compound
 |  |  |  | 0.0247 | 0.0255 | 0.0285 | 0.0202 |  | COc1ccc(C(=O)N[C@@H](C)C(=O)NCC(=O)N[C@@H](CCC(=O)O)C(=O)N[C@@H](CO)C(=O)N[C@@H](CCC(C)C)C(=O)N[C@@H](Cc2ccc(O)cc2)C(=O)N[C@@H](CCC(=O)O)C(N)=O)cc1 [MAI-517] ({Benzoyl(4-OMe)}-AGES[hLeu]YE-NH2)
 |  |  |  | 0.0509 | 0.0544 | 0.0551 | 0.0432 |  | COc1ccc(C(=O)N[C@@H](C)C(=O)NCC(=O)N[C@@H](CCC(=O)O)C(=O)N[C@@H](CO)C(=O)N[C@@H](CC2CCCCC2)C(=O)N[C@@H](Cc2ccc(O)cc2)C(=O)N[C@@H](CCC(=O)O)C(N)=O)cc1 [MAI-520] ({Benzoyl(4-OMe)}-AGES[Cha]YE-NH2)
 |  |  |  | 0.0449 | 0.0454 | 0.047 | 0.0424 |  | COc1ccc(C(=O)N[C@@H](C)C(=O)NCC(=O)N[C@@H](CCC(=O)O)C(=O)N[C@@H](CO)C(=O)N[C@@H](CC2CC2)C(=O)N[C@@H](Cc2ccc(O)cc2)C(=O)N[C@@H](CCC(=O)O)C(N)=O)cc1 [MAI-518] ({Benzoyl(4-OMe)}-AGES[Ala(cPr)]YE-NH2)
0.261 | 0.204 | 0.254 | 0.239 |  |  |  |  |  | Cc1ccc(C(=O)N[C@@H](C)C(=O)NCC(=O)N[C@@H](CCC(=O)O)C(=O)N[C@@H](CO)C(=O)N[C@@H](CC(C)C)C(=O)N[C@@H](Cc2ccc(O)cc2)C(=O)N[C@@H](CCC(=O)O)C(N)=O)cc1 [MAI-515] ({Benzoyl(4-Me)}-AGESLYE-NH2)
 |  |  |  | 0.147 | 0.166 | 0.144 | 0.131 |  | COc1ccc(C(=O)N[C@@H](C)C(=O)NCC(=O)N[C@@H](CCC(=O)O)C(=O)N[C@@H](CO)C(=O)N[C@@H](CC(C)C)C(=O)N[C@@H](Cc2ccc(O)cc2)C(=O)N[C@@H](Cc2ccc(C(C)(C)C)cc2)C(N)=O)cc1 [MAI-522] ({Benzoyl(4-OMe)}-AGESLY[Phe(4-tBu)]-NH2)

Second part, the molecule before the results:

Compound | IC50 [1] [µM] | IC50 [2] [µM] | IC50 [3] [µM] | IC50 [4] [µM] | IC50 [5] [µM] | IC50 [6] [µM] | IC50 [7] [µM] | IC50 [8] [µM] | IC50 [9] [µM]
C=CC(=O)N[C@@H](C)C(=O)NCC(=O)N[C@@H](CCC(=O)O)C(=O)N[C@@H](CO)C(=O)N[C@@H](CC(C)C)C(=O)N[C@@H](Cc1ccc(O)cc1)C(=O)N[C@@H](CCC(=O)O)C(N)=O [MAI-501] (Acryloyl-AGESLYE-NH2) | 29.9 | 19.1 | 22 | 23.7 |  |  |  |  | 
CC(C)C[C@H](NC(=O)[C@H](CO)NC(=O)[C@H](CCC(=O)O)NC(=O)CNC(=O)[C@H](C)NC(=O)c1cccnc1)C(=O)N[C@@H](Cc1ccc(O)cc1)C(=O)N[C@@H](CCC(=O)O)C(N)=O [MAI-513] (Nicotinoyl-AGESLYE-NH2) | 0.234 | 0.331 | 0.318 | 0.294 |  |  |  |  | 
CC(C)C[C@H](NC(=O)[C@H](CO)NC(=O)[C@H](CCC(=O)O)NC(=O)CNC(=O)[C@H](C)NC(=O)c1ccco1)C(=O)N[C@@H](Cc1ccc(O)cc1)C(=O)N[C@@H](CCC(=O)O)C(N)=O [MAI-506] (2Furoyl-AGESLYE-NH2) | 0.323 | 0.419 | 0.457 | 0.4 |  |  |  |  | 
CC(C)C[C@H](NC(=O)[C@H](CO)NC(=O)[C@H](CCC(=O)O)NC(=O)CNC(=O)[C@H](C)NC(=O)c1ncco1)C(=O)N[C@@H](Cc1ccc(O)cc1)C(=O)N[C@@H](CCC(=O)O)C(N)=O [MAI-455] (Oxazole2carbonyl-AGESLYE-NH2) |  |  |  |  |  |  |  |  | 0.86 ± 0.03
CC(C)C[C@H](NC(=O)[C@H](CO)NC(=O)[C@H](CCC(=O)O)NC(=O)CNC(=O)[C@H](C)NC(=O)c1ccncc1)C(=O)N[C@@H](Cc1ccc(O)cc1)C(=O)N[C@@H](CCC(=O)O)C(N)=O [MAI-514] (Isonicotinoyl-AGESLYE-NH2) | 0.116 | 0.128 | 0.0999 | 0.114 |  |  |  |  | 
CC(C)C[C@H](NC(=O)[C@H](CO)NC(=O)[C@H](CCC(=O)O)NC(=O)CNC(=O)[C@H](C)NC(=O)C1CCCCC1)C(=O)N[C@@H](Cc1ccc(O)cc1)C(=O)N[C@@H](CCC(=O)O)C(N)=O [MAI-504] (Cyclohexanecarbonyl-AGESLYE-NH2) | 2.24 | 1.66 | 1.59 | 1.83 |  |  |  |  | 
CC(C)C[C@H](NC(=O)[C@H](CO)NC(=O)[C@H](CCC(=O)O)NC(=O)CNC(=O)[C@H](C)NC(=O)c1ccncn1)C(=O)N[C@@H](Cc1ccc(O)cc1)C(=O)N[C@@H](CCC(=O)O)C(N)=O [MAI-464] (X3-AGESLYE-NH2) |  |  |  |  |  |  |  |  | 0.22 ± 0.01
CC(C)C[C@H](NC(=O)[C@H](CO)NC(=O)[C@H](CCC(=O)O)NC(=O)CNC(=O)[C@H](C)NC(=O)CCS)C(=O)N[C@@H](Cc1ccc(O)cc1)C(=O)N[C@@H](CCC(=O)O)C(N)=O [MAI-502] ([Mpa]AGESLYE-NH2) | 2.46 | 1.52 | 2.21 | 2.06 |  |  |  |  | 
